Reference: patent US12642788B2, “Pharmaceutical composition comprising benzimidazole derivative compound” (HK INNO.N CORPORATION, priority 2020, dated 2026)

What was measured:
Format in all cases: in vivo, C57BL/6 male mice
[1] = tested on: colitis induced by dextran sodium sulfate (DSS); assay: Mouse model of colitis using DSS (body weight, length of large intestine, DAI); settings: 30 mg/kg/day oral twice a day; for decrease in body weight: vs day 0 = 100%
Procedure: Mouse Model of Colitis Using DSS C57BL/6 male mice, which were eight weeks old (24.0 g), were purchased from Orient Bio, acclimated to the laboratory environment (temperature of 21±2° C. and humidity of 50±10%) for one week with a full access to feed and water, and used in an experiment. The mice were divided into a normal control group (Control, n=6), a group with induced colitis (DSS+Veh, n=8), a group dosed with tegoprazan (DSS+Tegoprazan, n=8), and a group dosed with a control drug (DSS+Rabeprazole, n=8), and the experiment was performed. To induce colitis, DSS (MPbio product, catalog No. 0216011080) was used. The group with induced colitis (DSS+Veh) was dosed with 2.0% DSS in drinking water for consecutive five days, was suspended from 2.0% DSS administration from the 5th day, and was orally dosed with 0.5% (w/v) methylcellulose aqueous solution twice a day for three days until the 8th day. The group dosed with tegoprazan (DSS+Tegoprazan) was orally dosed with tegoprazan (7-{[(4S)-5,7-difluoro-3,4-dihydro-2H-chromen-4-yl]oxy}-N,N,2-trimethyl-1H-benzi midazole-5-carboxamide), which was dissolved in 0.5% (w/v) methylcellulose aqueous solution, at a dose of 30 mg/kg/day twice a day for five days along with 2% DSS and drinking water. The group was suspended from 2.0% DSS administration from the 5th day, and was orally dosed with tegoprazan, which was dissolved in 0.5% (w/v) methylcellulose aqueous solution, twice a day for three days until the 8th day. The group dosed with the control drug (DSS+Rabeprazole) was dosed with DSS and rabeprazole in substantially the same manner as the group dosed with tegoprazan, except for using rabeprazole instead of tegoprazan. In the group dosed with tegoprazan and the group dosed with the control drug, the oral administration was performed twice a day by dividing the administration into morning/afternoon. The body weight of each mouse was measured with regard to the normal control group, the group with induced colitis, the group dosed with tegoprazan, and the group dosed with the control drug. The body weight of the mouse was measured every morning from the start day of experiment (day 0), in which DSS was not administered, until the 9th day, and the body weight of the mouse, which was measured on the start day of experiment (day 0) without the administration of DSS, was converted into 100%. On the 9th day after an initial administration of 2% DSS solution, the mouse was sacrificed and the colon was removed therefrom to measure the length of the removed large intestine. (In FIG. 2, * indicates P<0.05 and ** indicates P<0.01.) As DAI, a change in body weight, bloody stool and stool viscosity were measured every morning, and scored according to the following table 1.

[2] = tested on: colitis induced by 2,4-dinitrobenzenesulfonic acid hydrate (DNBS); assay: Mouse model of colitis using DNBS (body weight, length of large intestine, DAI, survival rate); settings: for body weight: day 0 = 100%; for survival rate: as of day 5
Procedure: Mouse Model of Colitis Using DNBS
C57BL/6 male mice, which were eight weeks old (24.0 g), were purchased from Orient Bio, acclimated to the laboratory environment (temperature of 21±2° C. and humidity of 50±10%) for one week with a full access to feed and water, and used in an experiment.
The mice were divided into a normal control group (Control, n=6), a group with induced colitis (DNBS+Vehicle, n=8), a group dosed with tegoprazan (DNBS+Tegoprazan, n=8), and a group dosed with a control drug (DNBS+Rabeprazole, n=8), and the experiment was performed.
To induce colitis, DNBS (Sigma-Aldrich product, catalog No. 556971) was used. The mice were fasted from one day before being dosed with DNBS to remove the fecal waste in the intestine. The normal control group was dosed with 50% ethanol only by rectal route.
The administration of DNBS was done by dissolving 5 mg of DNBS in 50% ethanol and administering it by rectal route.
In the group dosed with tegoprazan (DNBS+Tegoprazan), the DNBS-administered mouse was orally dosed with tegoprazan (7-{[(4S)-5,7-Difluoro-3,4-dihydro-2H-chromen-4-yl]oxy}-N,N,2-trimethyl-1H-benzi midazole-5-carboxamide), which had been dissolved in 0.5% (w/v) methylcellulose aqueous solution, at a dose of 30 mg/kg/day twice a day for five days.
In the group dosed with the control drug (DNBS+Rabeprazole), the DNBS-administered mouse was dosed with rabeprazole in substantially the same manner as the group dosed with tegoprazan, except for using rabeprazole instead of tegoprazan.
In the group with induced colitis (DNBS+Vehicle), the DNBS-administered mouse was orally dosed with 0.5% (w/v) methylcellulose aqueous solution twice a day.
In the group dosed with tegoprazan, the group dosed with the control drug, and the group with induced colitis, the oral administration was performed twice a day by dividing the administration into morning/afternoon. After being dosed for four days, the mouse was sacrificed on the 5th day.
The body weight of each mouse in the normal control group, the group with induced colitis, the group dosed with tegoprazan, and the group dosed with the control drug was measured. The body weight of the mouse was measured every morning from the start day of experiment before administration of DNBS (day 0) to the 5th day, and the body weight of the mouse before administration of DNBS on day 0 was converted into 100%. In the case of the mouse sacrificed before the end of experiment, the weight of the mouse measured the day before sacrifice was included in the data as of the last day of experiment and converted (refer to FIG. 15 for survival period and survival rate).
On the 5th day after an initial administration of DNBS, the mouse was sacrificed, and the colon was removed therefrom to measure the length of the removed large intestine. (In FIG. 10, * indicates P<0.05.)
As DAI, a change in body weight, bloody stool and stool viscosity were measured every morning, and scored according to the following table 1.
(In relation to the animal model of colitis using DNBS, in the case of the mouse sacrificed before the end of experiment, the DAI score of the mouse measured the day before sacrifice was included in the data as of the last day of experiment and converted (refer to FIG. 15 for survival period and survival rate).)

colonic tissues [3] = assay: PAS staining analysis and damage to colonic tissues, DNBS model
Procedure: (§1) PAS staining analysis was performed on colonic tissues obtained from each of the animal models in which DSS and DNBS had been used, the goblet cell loss was scored according to the following table 2, and the degree of tissue damage was scored according to the following table 3. [table] [table]

colonic tissues [4] = assay: PAS staining analysis and damage to colonic tissues, DSS model; settings: for scored degree of damage to colonic tissues: score per Table 3
Procedure: as §1

IL-17 = IL-17 mRNA expression in colonic tissues, real-time PCR, DNBS model; settings: compared to the group with induced colitis
Procedure: In the mouse model of colitis using DNBS, the level of mRNA expression of IL-17 was evaluated by using a real-time PCR. (In FIG. 12, ** indicates P<0.01 and *** indicates P<0.001.)

Muc2 = Muc2 mRNA expression in colonic tissues, real-time PCR, DSS model
Procedure: (§2) In the mouse model of colitis using DSS, the level of mRNA expression of IL-1p, IL-6, Muc 2 and TNF-α was evaluated by using a real-time PCR. (In FIG. 5, * indicates P<0.05, ** indicates P<0.01, and *** indicates P<0.001.)

KCNJ1 mRNA = KCNJ1 mRNA expression in colonic tissues, real-time PCR, DSS model; settings: 30 mg/kg/day oral
Procedure: In the mouse model of colitis using DSS, the difference in expression of KCNJ1 mRNA was measured by using a real-time PCR. (In FIG. 4, ** indicates P<0.01.)

IL-1β = IL-1β production/expression in colonic tissues, DSS model
Procedure: as §2

[5] = tested on: tight junction (intestinal permeability); assay: FITC-dextran permeability, DSS model; settings: FITC value in serum 4 hours after oral FITC-dextran
Procedure: Four hours before the mouse was sacrificed in the mouse model of colitis using DSS, the mouse was orally dosed with FITC-dextran (80 mg/mL), after which cardiac puncture was performed to measure an FITC value in serum. Permeability (%) was converted based on the normal control group.

TNF-α [6] = assay: TNF-α mRNA expression in colonic tissues, real-time PCR, DSS model; settings: compared to the group with induced colitis
Procedure: as §2

TNF-α [7] = assay: TNF-α mRNA expression in colonic tissues, DNBS model; settings: compared to the group with induced colitis
IL-6 [8] = assay: IL-6 mRNA expression in colonic tissues, real-time PCR, DSS model; settings: compared to the group with induced colitis
Procedure: as §2

IL-6 [9] = assay: IL-6 mRNA expression in colonic tissues, DNBS model; settings: compared to the group with induced colitis
[10] = 5th day, 30 mg/kg/day oral twice a day

COCCCOc1ccnc(C[S+]([O-])c2nc3ccccc3[nH]2)c1C (centres unmarked) [control drug, rabeprazole, reference compound] was tested, and the “decrease in body weight” value ([1]; 9th day) was “about 23%”, the body weight [2, 10] was 89% and the survival rate [2] was 75%. The “scored degree of damage to colonic tissues” value (“scored degree of damage” below) (colonic tissues [3]; score per Table 3) was 7.0±1.4 point and the “scored degree of damage” value (colonic tissues [4]) was 8.12±1.8 point.

For Cc1nc2cc(C(=O)N(C)C)cc(O[C@H]3CCOc4cc(F)cc(F)c43)c2[nH]1 [tegoprazan, (S)-4-(5,7-difluorochroman-4-yloxy)-N,N,2-trimethyl-1H-benzo[d]imidazole-6-carbox amide], the “mRNA expression of IL-17” value (IL-17) was “significant decrease”, the “mRNA expression of Muc2” value (Muc2) was “statistically significant increase” and the “expression of KCNJ1 mRNA” value (KCNJ1 mRNA) was “significant decrease in expression of KCNJ1 mRNA”. The “length of the large intestine” value ([1]; 9th day) was “a rather increase in the length of the large intestine or no difference from the normal control group”, the “decrease in body weight” value ([1]; 9th day) was “about 14%” and the “disease activity index (DAI) score” value ([1]; to 9th day) was “took a turn for the better compared to the group with induced colitis”. For the same molecule, the “length of the large intestine” value [2, 10] was “no difference in the length of the large intestine from the normal control group”, the body weight [2, 10] was “about 105%” and the survival rate [2] was “all the subjects in the group dosed with tegoprazan survived until the last day of experiment”. The “disease activity index (DAI) score” value ([2]; to 5th day, 30 mg/kg/day oral twice a day) was “DAI drastically decreased from the 4th day”, the “production/expression of IL-1β” value (IL-1β) was “inhibits the production/expression” and the “crypt damage (PAS staining)” value (colonic tissues [3]; colonic tissues) was “partially intact crypt was observed”. The “goblet cells (PAS staining)” value (colonic tissues [3]; colonic tissues) was “presence of mucin-producing goblet cells was confirmed”, the “damage to the tight junction (FITC-dextran permeability)” value [5] was “significant decrease in the damage to the tight junction” and the “mRNA expression of TNF-α” value (TNF-α [6]) was “statistically significant decrease”. For the same molecule, the “crypt damage (PAS staining)” value (colonic tissues [4]; colonic tissues) was “partially intact crypt was observed”, the “goblet cells (PAS staining)” value (colonic tissues [4]; colonic tissues) was “goblet cells were also present compared to the group with induced colitis” and the “scored degree of damage” value (colonic tissues [4]) was 5.38±1.8 point. For the same molecule, the “mRNA expression of TNF-α” value (TNF-α [7]) was “tended to decrease”, the “mRNA expression of IL-6” value (IL-6 [8]) was “statistically significant decrease” and the “mRNA expression of IL-6” value (IL-6 [9]) was “tended to decrease”.
